Experimental data as given in PubChem BioAssay AID1963982 (Molecular Pharmacology Branch, DTP, NCI, 2024).

System: 313798-341-R-J2-PDC spheroids, viability
Assay: Anticancer human tumor 313798-341-R-J2-PDC patient-derived cervical squamous cell carcinoma cell line growth inhibition [PI3K]
Settings: spheroids with HUVEC and MSC; for IC50: curve of first compound; for viability, T/C: stronger effect = lower value
In short: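 Targeted small molecules plus PI3K inhibitors, half-log dose series from Cmax (default top 10 microM), were applied to heterotypic spheroids of cancer cells with HUVEC and MSCs. Viability indicated growth inhibition.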
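Note: spheroids exposed to compounds for seven days.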
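Throughout, for viability, T/C: 100% = DMSO vehicle control viability.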

CNC(=O)c1ccc(N2C(=S)N(c3ccc(C#N)c(C(F)(F)F)c3)C(=O)C2(C)C)cc1F + COc1c(OCCCN2CCOCC2)ccc2c3n(c(=NC(=O)c4cnc(N)nc4)nc12)CCN3
IC50 (second compound 0.00316 µM): > 10000 nM | IC50 (second compound 0.01 µM): > 10000 nM | IC50 (second compound 0.0316 µM): > 10000 nM | IC50 (second compound 0.1 µM): < 31.6 nM | IC50 (second compound 0.316 µM): < 31.6 nM | IC50 (second compound 1 µM): < 31.6 nM | viability, T/C (second compound 0.00316 µM, first compound 0.0316 µM): 98.3% | viability, T/C (second compound 0.00316 µM, first compound 0.1 µM): 117% | viability, T/C (second compound 0.00316 µM, first compound 0.316 µM): 102% | viability, T/C (second compound 0.00316 µM, first compound 1 µM): 112% | viability, T/C (second compound 0.00316 µM, first compound 3.16 µM): 99.8% | viability, T/C (second compound 0.00316 µM, first compound 10 µM): 87.1% | viability, T/C (second compound 0.01 µM, first compound 0.0316 µM): 102% | viability, T/C (second compound 0.01 µM, first compound 0.1 µM): 100% | viability, T/C (second compound 0.01 µM, first compound 0.316 µM): 97.3% | viability, T/C (second compound 0.01 µM, first compound 1 µM): 115% | viability, T/C (second compound 0.01 µM, first compound 3.16 µM): 94.7% | viability, T/C (second compound 0.01 µM, first compound 10 µM): 96.7% | viability, T/C (second compound 0.0316 µM, first compound 0.0316 µM): 73.3% | viability, T/C (second compound 0.0316 µM, first compound 0.1 µM): 79.2% | viability, T/C (second compound 0.0316 µM, first compound 0.316 µM): 73.2% | viability, T/C (second compound 0.0316 µM, first compound 1 µM): 71.3% | viability, T/C (second compound 0.0316 µM, first compound 3.16 µM): 74.1% | viability, T/C (second compound 0.0316 µM, first compound 10 µM): 62.8% | viability, T/C (second compound 0.1 µM, first compound 0.0316 µM): 37.3% | viability, T/C (second compound 0.1 µM, first compound 0.1 µM): 42.9% | viability, T/C (second compound 0.1 µM, first compound 0.316 µM): 39.7% | viability, T/C (second compound 0.1 µM, first compound 1 µM): 40.8% | viability, T/C (second compound 0.1 µM, first compound 3.16 µM): 34.9% | viability, T/C (second compound 0.1 µM, first compound 10 µM): 31.8% | viability, T/C (second compound 0.316 µM, first compound 0.0316 µM): 15.5% | viability, T/C (second compound 0.316 µM, first compound 0.1 µM): 16.6% | viability, T/C (second compound 0.316 µM, first compound 0.316 µM): 13.9% | viability, T/C (second compound 0.316 µM, first compound 1 µM): 13.4% | viability, T/C (second compound 0.316 µM, first compound 3.16 µM): 14.8% | viability, T/C (second compound 0.316 µM, first compound 10 µM): 12.3% | viability, T/C (second compound 1 µM, first compound 0.0316 µM): 11.8% | viability, T/C (second compound 1 µM, first compound 0.1 µM): 9.64% | viability, T/C (second compound 1 µM, first compound 0.316 µM): 11.3% | viability, T/C (second compound 1 µM, first compound 1 µM): 9.53% | viability, T/C (second compound 1 µM, first compound 3.16 µM): 9.76% | viability, T/C (second compound 1 µM, first compound 10 µM): 8.76%

Cn1cnc2c(F)c(Nc3ccc(Br)cc3Cl)c(C(=O)NOCCO)cc21 + COc1c(OCCCN2CCOCC2)ccc2c3n(c(=NC(=O)c4cnc(N)nc4)nc12)CCN3
IC50 (second compound 0.00316 µM): > 3000 nM | IC50 (second compound 0.01 µM): > 3000 nM | IC50 (second compound 0.0316 µM): 2960 nM | IC50 (second compound 0.1 µM): < 9.49 nM | IC50 (second compound 0.316 µM): < 9.49 nM | IC50 (second compound 1 µM): < 9.49 nM | viability, T/C (second compound 0.00316 µM, first compound 0.00949 µM): 88% | viability, T/C (second compound 0.00316 µM, first compound 0.03 µM): 93.1% | viability, T/C (second compound 0.00316 µM, first compound 0.0949 µM): 95.2% | viability, T/C (second compound 0.00316 µM, first compound 0.3 µM): 87.6% | viability, T/C (second compound 0.00316 µM, first compound 0.949 µM): 97.3% | viability, T/C (second compound 0.00316 µM, first compound 3 µM): 75.7% | viability, T/C (second compound 0.01 µM, first compound 0.00949 µM): 93.1% | viability, T/C (second compound 0.01 µM, first compound 0.03 µM): 100% | viability, T/C (second compound 0.01 µM, first compound 0.0949 µM): 97.3% | viability, T/C (second compound 0.01 µM, first compound 0.3 µM): 101% | viability, T/C (second compound 0.01 µM, first compound 0.949 µM): 82% | viability, T/C (second compound 0.01 µM, first compound 3 µM): 70.3% | viability, T/C (second compound 0.0316 µM, first compound 0.00949 µM): 84.8% | viability, T/C (second compound 0.0316 µM, first compound 0.03 µM): 75.5% | viability, T/C (second compound 0.0316 µM, first compound 0.0949 µM): 75% | viability, T/C (second compound 0.0316 µM, first compound 0.3 µM): 62.5% | viability, T/C (second compound 0.0316 µM, first compound 0.949 µM): 73.4% | viability, T/C (second compound 0.0316 µM, first compound 3 µM): 46.8% | viability, T/C (second compound 0.1 µM, first compound 0.00949 µM): 45.2% | viability, T/C (second compound 0.1 µM, first compound 0.03 µM): 35.3% | viability, T/C (second compound 0.1 µM, first compound 0.0949 µM): 32.3% | viability, T/C (second compound 0.1 µM, first compound 0.3 µM): 31.6% | viability, T/C (second compound 0.1 µM, first compound 0.949 µM): 26.4% | viability, T/C (second compound 0.1 µM, first compound 3 µM): 17.1% | viability, T/C (second compound 0.316 µM, first compound 0.00949 µM): 12.5% | viability, T/C (second compound 0.316 µM, first compound 0.03 µM): 9.53% | viability, T/C (second compound 0.316 µM, first compound 0.0949 µM): 5.72% | viability, T/C (second compound 0.316 µM, first compound 0.3 µM): 4.75% | viability, T/C (second compound 0.316 µM, first compound 0.949 µM): 3.32% | viability, T/C (second compound 0.316 µM, first compound 3 µM): 2.54% | viability, T/C (second compound 1 µM, first compound 0.00949 µM): 10.1% | viability, T/C (second compound 1 µM, first compound 0.03 µM): 5.21% | viability, T/C (second compound 1 µM, first compound 0.0949 µM): 3.78% | viability, T/C (second compound 1 µM, first compound 0.3 µM): 3.94% | viability, T/C (second compound 1 µM, first compound 0.949 µM): 2.23% | viability, T/C (second compound 1 µM, first compound 3 µM): 1%
